Reference: patent US20090306207A1, “Treatment of Drug-Resistant Proliferative Disorders” (priority 2005, published 2009)

Tests used:
[1] = tested on: 32Dcl3 cells expressing BCR-ABL Y253F; assay: Cell viability (trypan blue exclusion), BCR-ABL Y253F cells
Description: (§2) Mutations corresponding to those published in the literature (Shah et al., Oncogene, 22, 7389-7395 (2003)) were introduced into the bcr-abl cDNA, which was then introduced into actively proliferating 32Dcl3 cells (Rovera et al., Oncogene 1, 29-35 (1987)) according to the following procedure.
(§3) The expression of the BCR-ABL proteins was determined by Western blot and kinase assays.
(§4) Transfectants were selected in the absence of IL-3.
(§5) The total number of viable cells was determined by trypan blue exclusion at 72 hours post-treatment. The percent viable cells compared to vehicle-treated controls was determined.
(§6) The wild type comprises 32Dcl3.BCR-ABL cells that ectopically expressed the wild-type p210^BCR-ABL oncoprotein. The total number of viable cells was determined by trypan blue exclusion at 72 hours post-treatment. The percent viable cells compared to vehicle-treated controls was determined.

[2] = tested on: 32Dcl3.BCR-ABL cells expressing wild-type p210 BCR-ABL; assay: Cell viability (trypan blue exclusion), cells expressing wild-type BCR-ABL; type: cell-based, murine; conditions: for GI50: Mus musculus, 72 hours
Description: (§1) Cell viability was then determined by trypan blue exclusion.
Cells expressing the wild-type p210^BCA-ABL oncoprotein (32Dcl3.BCR-ABL) or the BCR-ABL mutations G250E, T315I or M351T, were incubated with varying concentrations of Compound 4 ((E)-1-(2-(4-bromobenzylsulfonyl)vinyl)-2,4-difluorobenzene).

[3] = tested on: 32Dcl3 cells expressing BCR-ABL F359V; assay: Cell viability (trypan blue exclusion), BCR-ABL F359V cells; type: cell-based, murine; conditions: Mus musculus, 72 hours
[4] = tested on: 32Dcl3 cells expressing BCR-ABL G250E; assay: Cell viability (trypan blue exclusion), BCR-ABL G250E cells
Description: as §2, §3, §4, §5, §6

[5] = tested on: 32Dcl3 cells expressing BCR-ABL M351T; assay: Cell viability (trypan blue exclusion), BCR-ABL M351T cells; type: cell-based, murine; conditions: Mus musculus, 72 hours
[6] = tested on: 32Dcl3 cells expressing BCR-ABL E255K; assay: Cell viability (trypan blue exclusion), BCR-ABL E255K cells
Description: as §3, §4, §5, §6

[7] = tested on: 32Dcl3 cells expressing BCR-ABL E255V; assay: Cell viability (trypan blue exclusion), BCR-ABL E255V cells
Description: as §2, §3, §4, §5, §6

[8] = tested on: 32Dcl3 cells expressing BCR-ABL L387M; assay: Cell viability (trypan blue exclusion), BCR-ABL L387M cells
Description: as §3, §4, §5, §6

[9] = tested on: 32Dcl3 cells expressing BCR-ABL H396P; assay: Cell viability (trypan blue exclusion), BCR-ABL H396P cells; type: cell-based, murine; conditions: Mus musculus, 72 hours
[10] = tested on: 32Dcl3 cells expressing BCR-ABL H396R; assay: Cell viability (trypan blue exclusion), BCR-ABL H396R cells; type: cell-based, murine; conditions: Mus musculus, 72 hours
[11] = tested on: 32Dcl3 cells expressing BCR-ABL F311L; assay: Cell viability (trypan blue exclusion), BCR-ABL F311L cells
Description: as §2, §3, §4, §5, §6

[12] = tested on: 32Dcl3 cells expressing BCR-ABL E355G; assay: Cell viability (trypan blue exclusion), BCR-ABL E355G cells; type: cell-based, murine; conditions: Mus musculus, 72 hours
[13] = tested on: 32Dcl3 cells expressing BCR-ABL Y253H; assay: Cell viability (trypan blue exclusion), BCR-ABL Y253H cells; type: cell-based, murine; conditions: Mus musculus, 72 hours
[14] = tested on: 32Dcl3 cells expressing BCR-ABL Q252H; assay: Cell viability (trypan blue exclusion), BCR-ABL Q252H cells; type: cell-based, murine; conditions: 72 hours
[15] = tested on: 32Dcl3 cells expressing BCR-ABL T315I; assay: Cell viability (trypan blue exclusion), BCR-ABL T315I cells
Description: as §2, §3, §4, §5, §6

[16] = tested on: 32Dcl3 cells transfected to express wild-type or imatinib-resistant forms of BCR-ABL; assay: Growth inhibition of the panel of cells expressing wild-type or imatinib-resistant forms of BCR-ABL; type: cell-based, murine
Description: as §3, §5, §6

[17] = tested on: 32Dcl3 cells expressing BCR-ABL F317L; assay: Cell viability (trypan blue exclusion), BCR-ABL F317L cells; type: cell-based, murine; conditions: Mus musculus, 72 hours
[18] = Toxicity in treated mice (body weight, signs); conditions: 100 mg/kg daily intraperitoneal for 10 days
Description: Female athymic nude mice (ncr/ncr) were injected intravenously with 1×10^6 32Dcl3 cells expressing the mutant BCR-ABL^T315I via the tail vein.
Body weights of the test animals were taken every two days.

normal bone marrow cells = assay: Hematopoietic colony formation assay; type: in vivo, CD-1 mice; conditions: 100 mg/kg intravenous; bone marrow cells extracted after 24 hrs
Description: To examine the effects of Compound 1 on normal hematopoietic cell population in vivo, a dose of 100 mg/kg of this compound in normal saline (or saline alone as a control) was injected intravenously (tail vein injection) into CD-1 mice (10 animals per group). The effect on the in vitro hematopoietic colony formation of normal bone marrow cells derived from these mice was determined 24 hrs following administration. Bone marrow cells were extracted from the mice after 24 hrs and 2×10^5 cells were plated on methylcellulose containing appropriate cytokines for lineage specific colony formation. Colonies were counted after 5 to 14 days of incubation.

[19] = tested on: 32Dcl3 cells expressing BCR-ABL M244V; assay: Cell viability (trypan blue exclusion), BCR-ABL M244V cells; type: cell-based, murine; conditions: Mus musculus, 72 hours
CML K562 cells = assay: Cell viability (trypan blue exclusion), K562 cells; type: cell-based
Description: K562 cells were maintained in RPMI (Roswell Park Memorial Institute) medium supplemented with 10% FBS and 1 U/ml penicillin-streptomycin.
as §1

32D/BCR-ABL^T315I cells = assay: In vivo growth of cells expressing imatinib-resistant BCR-ABL T315I (blood smears); parameters: species or system athymic nude mice; conditions: 100 mg/kg daily intraperitoneal; days 7 and 14; compared to vehicle and imatinib treated groups
Description: Blood smears on the treated mice were performed 7 and 14 days after the start of treatments. One drop of blood from each mouse was smeared onto glass slides, air dried and stained with modified Wright stain (Sigma). The T315I cells in the blood were easily visible due to their blue staining and size difference. The number of T315I cells per 10 fields was determined by counting 10 fields of view containing an equal density of red blood cells using a 40× objective on an upright Olympus microscope.

**Q.** Which GI50 ([1]; 72 hours) does the source give for COc1cc(OC)c(/C=C/S(=O)(=O)Cc2ccc(OC)c(NC(C)(C)C(=O)O)c2)c(OC)c1 [Compound 3, (E)-2-(5-((2,4,6-trimethoxystyryl-sulfonyl)methyl)-2-methoxyphenylamino)-2-methylpropanoic acid] here?
**A.** 70 nM

**Q.** What about the GI50 ([1]; Mus musculus, 72 h) of the same molecule?
**A.** 40 nM

**Q.** And the GI50 ([2]; Wild-type)?
**A.** 40 nM

**Q.** And the GI50 [3]?
**A.** 70 nM

**Q.** What about the GI50 ([4]; Mus musculus, 72 h) of the same molecule?
**A.** 25 nM

**Q.** What about the GI50 [5] of the same molecule?
**A.** 60 nM

**Q.** What about the GI50 ([6]; Mus musculus, 72 h) of the same molecule?
**A.** 50 nM

**Q.** What about the GI50 ([7]; Mus musculus, 72 h) of the same molecule?
**A.** 50 nM

**Q.** What about the GI50 ([8]; Mus musculus, 72 h) of the same molecule?
**A.** 50 nM

**Q.** And the GI50 [9]?
**A.** 50 nM

**Q.** And the GI50 [10]?
**A.** 60 nM

**Q.** What about the GI50 ([11]; Mus musculus, 72 h) of the same molecule?
**A.** 70 nM

**Q.** And the GI50 [12]?
**A.** 50 nM

**Q.** And the GI50 [13]?
**A.** 30 nM

**Q.** What about the GI50 ([14]; Mus musculus) of the same molecule?
**A.** 40 nM

**Q.** And the GI50 ([15]; Mus musculus, 72 h)?
**A.** 60 nM

**Q.** What about the “sensitivity to growth-inhibitory activity” value ([16]; cell lines listed in Table 3, various concentrations, 72 hours) of the same molecule?
**A.** sensitive

**Q.** What about the GI50 [17] of the same molecule?
**A.** 60 nM

**Q.** For Cc1ccc(NC(=O)c2ccc(CN3CCN(C)CC3)cc2)cc1Nc1nccc(-c2cccnc2)n1 [imatinib, Imatinib], which loss of bodyweight [18] is on record?
**A.** > 20%

**Q.** Which “sensitivity to growth-inhibitory activity” value ([16]; wild-type, G250E, T315I or M351T, varying concentrations, 72 hours) does the source give for O=S(=O)(/C=C/c1ccc(F)cc1F)Cc1ccc(Br)cc1 [Compound 4, (E)-1-(2-(4-bromobenzylsulfonyl)vinyl)-2,4-difluorobenzene] here?
**A.** sensitive

**Q.** With COc1cc(OC)c(/C=C/S(=O)(=O)Cc2ccc(OC)c(NCC(=O)O)c2)c(OC)c1 [Compound 2, (E)-2-(5-((2,4,6-trimethoxystyrylsulfonyl)methyl)-2-methoxyphenylamino) acetic acid] as the molecule, how does the “sensitivity to growth-inhibitory activity” value ([16]; cell lines listed in Table 2, 250 nM) read?
**A.** sensitive

**Q.** Which results are given for COc1cc(OC)c(/C=C/S(=O)(=O)Cc2ccc(OC)c(NC(C)C(=O)O)c2)c(OC)c1 (centres unmarked) [Compound 1, (E)-2-(5-((2,4,6-trimethoxystyrylsulfonyl)methyl)-2-methoxyphenylamino) propanoic acid]?
**A.** LD50 ([1]; 72 hours): 6.8 nM; colony formation of the erythroid, myeloid or lymphoid lineages (normal bone marrow cells): No reduction in colony formation; LD50 (loss of viability) ([2]; 32Dcl3.BCR-ABL cells, 72 hours incubation): 10 to 15 nM; GI50 ([2]; None (wt), trypan blue exclusion): 10 nM; GI50 [3]: 7.1 nM; LD50 ([4]; G250E, 72 hours): 5.9 nM; GI50 [5]: 7.8 nM; LD50 ([6]; E255K, 72 hours): 8.4 nM; LD50 ([7]; E255V, 72 hours): 7.8 nM; LD50 ([8]; L387M, 72 hours): 7.1 nM; GI50 [9]: 7.9 nM; GI50 [10]: 6.8 nM; GI50 [19]: 7.8 nM; LD50 ([11]; F311L, 72 hours): 6.8 nM; GI50 [12]: 7.8 nM; GI50 [13]: 7.8 nM; LD50 [14]: 7.0 nM; concentration inhibiting proliferation, fold less than that shown for imatinib (CML K562 cells; BCR-ABL+ cell lines (K562 and 32Dcl3.BCR-ABL)): 10 fold; LD50 (loss of viability) (CML K562 cells; K562 cells, 72 hours incubation): 10 to 15 nM; number of T315I cells in the blood (32D/BCR-ABL^T315I cells): significantly reduced; LD50 ([15]; T315I, 72 hours): 7.5 nM; sensitivity to growth inhibitory activity ([16]; all transfected cell lines, including T315I mutant, various concentrations, 72 hours): extremely sensitive; GI50 [17]: 7.8 nM
